From patent US9533071B2, “Wound healing compositions including cyanoacrylate monomers and phenytoin” (Adhezion Biomedical, LLC, priority 2010, dated 2017)

How the values were obtained:
bacterial load of wounds = settings: clinical studies; cited from earlier work
[1] = system: surgical wounds of periodontal patients; settings: topical; cited from earlier work
[2] = Incorporation (miscibility) of phenytoin into cyanoacrylate monomers; format: physicochemical
Experimental: According to the present invention, an effective amount of wound healing promoter, is incorporated into the pre-stabilized liquid monomeric cyanoacrylate adhesive compositions to form a homogeneous liquid adhesive product. […] After continuous stirring at this elevated temperature, the mixture of cyanaocrylate monomers and wound healing accelerator becomes a homogeneous solution within about 1 to 2 hours. Standard mixing equipment and techniques are suitable. The 5,5-[…], including phenytoin are readily available from major chemical distributors. […] Table 1 below summarizes the results of incorporating phenytoin into different cyanoacrylate monomer solutions at the elevated temperatures. […] At the elevated temperatures, phenytoin is soluble in both 2-octyl cyanoacrylate (OCA) and n-butyl cyanoacrylate (BCA). It is also interesting to note that phenytoin is more soluble in shorter alkyl chain cyanoacrylate (BCA) than in longer alkyl chain cyanoacrylate (OCA).

SMILES: O=C1NC(=O)C(c2ccccc2)(c2ccccc2)N1 [phenytoin, 5,5-diphenylhydantoin]
- Bacterial load of wounds (bacterial load of wounds): decrease the bacterial load of wounds
- Inflammation and pain [1]: reduced inflammation and pain
- Wound healing [1]: accelerated wound healing
- Solubility in 2-octyl cyanoacrylate (OCA) ([2]; elevated temperatures): soluble
- Solubility in n-butyl cyanoacrylate (BCA) ([2]; elevated temperatures): soluble
- Solubility in 2-octyl cyanoacrylate (OCA) monomer ([2]; room temperature): not soluble
- Solubility in BCA compared with OCA ([2]; shorter vs longer alkyl chain cyanoacrylate): more soluble
